From paper PMC11005723, “Development of Complementary Photo‐arginine/lysine to Promote Discovery of Arg/Lys hPTMs Interactomes” (Advanced Science, 2024)

System: HEK293T nuclear lysates
Assay: SILAC‐based pull‐down proteomics H4K5me2/H4K5 (probes 7/5)
Format: binding, human
Settings: for E6 log2 (H4K5me2/H4K5): run E6; for F6 log2 (H4K5me2/H4K5): run F6

Substance: probe 7: H4K5me2 peptide probe with photo‐arginine R(dz) and K(biotin) (SGRGKGGKGLGKGGK; photo-arginine R(dz) at 3; dimethyl-lysine at 5; K(biotin) at 15)
- proteins recruited (SILAC proteomics H4K5me2/H4K5) (365 nm UV 30 min, streptavidin enrichment, n = 2): could recruit L3MBTL2
- E6 log2 (H4K5me2/H4K5) (protein A0A0U1RR22 PACSIN2): 0.1208
- F6 log2 (H4K5me2/H4K5) (protein A0A0U1RR22 PACSIN2): -0.1109
- E6 log2 (H4K5me2/H4K5) (protein A0A2R8Y855 SMARCE1): 0.07695
- F6 log2 (H4K5me2/H4K5) (protein A0A2R8Y855 SMARCE1): 0.03141
- E6 log2 (H4K5me2/H4K5) (protein A0A087WY61 NUMA1): 0.1401
- F6 log2 (H4K5me2/H4K5) (protein A0A087WY61 NUMA1): 0.3015
- E6 log2 (H4K5me2/H4K5) (protein A6NLN1 PTBP1): 0.07938
- F6 log2 (H4K5me2/H4K5) (protein A6NLN1 PTBP1): -0.02591
- E6 log2 (H4K5me2/H4K5) (protein B4DY09 ILF2): 0.08111
- F6 log2 (H4K5me2/H4K5) (protein B4DY09 ILF2): 0.1752
- E6 log2 (H4K5me2/H4K5) (protein B5MCF9 PES1): 0.1415
- F6 log2 (H4K5me2/H4K5) (protein B5MCF9 PES1): 0.1164
- E6 log2 (H4K5me2/H4K5) (protein E7ETZ4 BZW2): 0.1449
- F6 log2 (H4K5me2/H4K5) (protein E7ETZ4 BZW2): -0.03577
- E6 log2 (H4K5me2/H4K5) (protein E9PKG1 PRMT1): 0.1534
- F6 log2 (H4K5me2/H4K5) (protein E9PKG1 PRMT1): 0.23
- E6 log2 (H4K5me2/H4K5) (protein H7C3T4 PRDX4): 0.1102
- F6 log2 (H4K5me2/H4K5) (protein H7C3T4 PRDX4): 0.1589
- E6 log2 (H4K5me2/H4K5) (protein J3QR09 RPL19): 0.1467
- F6 log2 (H4K5me2/H4K5) (protein J3QR09 RPL19): -0.9956
- E6 log2 (H4K5me2/H4K5) (protein M0R3F6 SUGP2): 0.09539
- F6 log2 (H4K5me2/H4K5) (protein M0R3F6 SUGP2): 0.1115
- E6 log2 (H4K5me2/H4K5) (protein O00567 NOP56): 0.1426
- F6 log2 (H4K5me2/H4K5) (protein O00567 NOP56): -0.1862
- E6 log2 (H4K5me2/H4K5) (protein O14654 IRS4): 0.1705
- F6 log2 (H4K5me2/H4K5) (protein O14654 IRS4): -0.09217
- E6 log2 (H4K5me2/H4K5) (protein O14980 XPO1): 0.1332
- F6 log2 (H4K5me2/H4K5) (protein O14980 XPO1): 0.2789
- E6 log2 (H4K5me2/H4K5) (protein O43663 PRC1): 0.1243
- F6 log2 (H4K5me2/H4K5) (protein O43663 PRC1): 0.05206
- E6 log2 (H4K5me2/H4K5) (protein O43670 ZNF207): 0.07954
- F6 log2 (H4K5me2/H4K5) (protein O43670 ZNF207): 0.2082
- E6 log2 (H4K5me2/H4K5) (protein O60216 RAD21): 0.09859
- F6 log2 (H4K5me2/H4K5) (protein O60216 RAD21): -0.00427
- E6 log2 (H4K5me2/H4K5) (protein O60264 SMARCA5): 0.1187
- F6 log2 (H4K5me2/H4K5) (protein O60264 SMARCA5): 0.0006909
- E6 log2 (H4K5me2/H4K5) (protein O75717 WDHD1): 0.1724
- F6 log2 (H4K5me2/H4K5) (protein O75717 WDHD1): 0.09518
- E6 log2 (H4K5me2/H4K5) (protein O95218 ZRANB2): 0.07138
- F6 log2 (H4K5me2/H4K5) (protein O95218 ZRANB2): 0.02934
- E6 log2 (H4K5me2/H4K5) (protein O95239 KIF4A): 0.09061
- F6 log2 (H4K5me2/H4K5) (protein O95239 KIF4A): 0.09527
- E6 log2 (H4K5me2/H4K5) (protein P04843 RPN1): 0.0606
- F6 log2 (H4K5me2/H4K5) (protein P04843 RPN1): -0.2414
- E6 log2 (H4K5me2/H4K5) (protein P08107 HSPA1A): 0.1665
- F6 log2 (H4K5me2/H4K5) (protein P08107 HSPA1A): 0.1744
- E6 log2 (H4K5me2/H4K5) (protein P11387 TOP1): 0.0619
- F6 log2 (H4K5me2/H4K5) (protein P11387 TOP1): 0.02763
- E6 log2 (H4K5me2/H4K5) (protein P12081 HARS): 0.08516
- F6 log2 (H4K5me2/H4K5) (protein P12081 HARS): -0.01799
- E6 log2 (H4K5me2/H4K5) (protein P13010 XRCC5): 0.1114
- F6 log2 (H4K5me2/H4K5) (protein P13010 XRCC5): 0.1089
- E6 log2 (H4K5me2/H4K5) (protein P17028 ZNF24): 0.05262
- F6 log2 (H4K5me2/H4K5) (protein P17028 ZNF24): 0.1336
- E6 log2 (H4K5me2/H4K5) (protein P22314 UBA1): 0.1022
- F6 log2 (H4K5me2/H4K5) (protein P22314 UBA1): 0.2143
- E6 log2 (H4K5me2/H4K5) (protein P26358 DNMT1): 0.1405
- F6 log2 (H4K5me2/H4K5) (protein P26358 DNMT1): 0.2161
- E6 log2 (H4K5me2/H4K5) (protein P26641 EEF1G): 0.08126
- F6 log2 (H4K5me2/H4K5) (protein P26641 EEF1G): 0.1297
- E6 log2 (H4K5me2/H4K5) (protein P29692 EEF1D): 0.1014
- F6 log2 (H4K5me2/H4K5) (protein P29692 EEF1D): -0.2527
- E6 log2 (H4K5me2/H4K5) (protein P31689 DNAJA1): 0.1011
- F6 log2 (H4K5me2/H4K5) (protein P31689 DNAJA1): 0.04124
- E6 log2 (H4K5me2/H4K5) (protein P46109 CRKL): 0.0665
- F6 log2 (H4K5me2/H4K5) (protein P46109 CRKL): -0.05223
- E6 log2 (H4K5me2/H4K5) (protein P49411 TUFM): 0.1754
- F6 log2 (H4K5me2/H4K5) (protein P49411 TUFM): 0.2878
- E6 log2 (H4K5me2/H4K5) (protein P49792 RANBP2): 0.07412
- F6 log2 (H4K5me2/H4K5) (protein P49792 RANBP2): 0.1736
- E6 log2 (H4K5me2/H4K5) (protein P49915 GMPS): 0.05379
- F6 log2 (H4K5me2/H4K5) (protein P49915 GMPS): 0.04262
- E6 log2 (H4K5me2/H4K5) (protein P51991 HNRNPA3): 0.1036
- F6 log2 (H4K5me2/H4K5) (protein P51991 HNRNPA3): 0.2517
- E6 log2 (H4K5me2/H4K5) (protein P52272 HNRNPM): 0.1368
- F6 log2 (H4K5me2/H4K5) (protein P52272 HNRNPM): 0.1164
- E6 log2 (H4K5me2/H4K5) (protein P52597 HNRNPF): 0.1056
- F6 log2 (H4K5me2/H4K5) (protein P52597 HNRNPF): 0.253
- E6 log2 (H4K5me2/H4K5) (protein P52948 NUP98): 0.08442
- F6 log2 (H4K5me2/H4K5) (protein P52948 NUP98): -0.03692
- E6 log2 (H4K5me2/H4K5) (protein P55072 VCP): 0.1596
- F6 log2 (H4K5me2/H4K5) (protein P55072 VCP): 0.3874
- E6 log2 (H4K5me2/H4K5) (protein P62258 YWHAE): 0.1303
- F6 log2 (H4K5me2/H4K5) (protein P62258 YWHAE): -0.03753
- E6 log2 (H4K5me2/H4K5) (protein P62979 RPS27A): 0.1537
- F6 log2 (H4K5me2/H4K5) (protein P62979 RPS27A): -0.5244
- E6 log2 (H4K5me2/H4K5) (protein P63167 DYNLL1): 0.05641
- F6 log2 (H4K5me2/H4K5) (protein P63167 DYNLL1): 0.2614
- E6 log2 (H4K5me2/H4K5) (protein P67870 CSNK2B): 0.1418
- F6 log2 (H4K5me2/H4K5) (protein P67870 CSNK2B): -0.3988
- E6 log2 (H4K5me2/H4K5) (protein P78347 GTF2I): 0.1733
- F6 log2 (H4K5me2/H4K5) (protein P78347 GTF2I): 0.08348
- E6 log2 (H4K5me2/H4K5) (protein P78371 CCT2): 0.07998
- F6 log2 (H4K5me2/H4K5) (protein P78371 CCT2): 0.282
- E6 log2 (H4K5me2/H4K5) (protein P84103 SRSF3): 0.08043
- F6 log2 (H4K5me2/H4K5) (protein P84103 SRSF3): -0.102
- E6 log2 (H4K5me2/H4K5) (protein P85037 FOXK1): 0.1575
- F6 log2 (H4K5me2/H4K5) (protein P85037 FOXK1): -0.07311
- E6 log2 (H4K5me2/H4K5) (protein Q5SY16 NOL9): 0.1325
